From the supplement of paper PMC10307832

Legend:
Test in all cases: relative viability (nuclei count vs DMSO), 5 days (fraction); higher = more cells survive
[1] = system: ABC-1
How it was run: (§1)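 For relative viability, nuclei counts in treated wells were divided by those in vehicle wells. Lung cancer cell lines had been pin-tool dosed in 1536-well plates the day after seeding and cultured for 5 days, then fixed and stained in one step (final 0.05% Triton X-100, 1% formaldehyde, 1 ug/ml Hoechst) and imaged at 4×. Doses were one drug alone or a fixed anchor-drug dose plus five library-drug doses (not always all listed) in √10 steps, and values are duplicate-plate medians.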

[2] = system: COR-L23
How it was run: as §1

[3] = system: EPLC-272H
How it was run: as §1

[4] = system: HARA
How it was run: as §1

[5] = system: HCC-15
How it was run: as §1

[6] = system: HCC-44
How it was run: as §1

[7] = system: HOP-62
How it was run: as §1

[8] = system: LC-2-ad
How it was run: as §1

[9] = system: LU99A
How it was run: as §1

[10] = system: NCI-H1355
How it was run: as §1

[11] = system: NCI-H1651
How it was run: as §1

[12] = system: NCI-H1915; conditions: first compound 0.0002 µM
How it was run: as §1

CC(=O)O[C@@]12CO[C@@H]1C[C@H](O)[C@@]1(C)C(=O)[C@H](O)C3=C(C)[C@@H](OC(=O)[C@H](O)[C@@H](NC(=O)OC(C)(C)C)c4ccccc4)C[C@@](O)([C@@H](OC(=O)c4ccccc4)[C@H]21)C3(C)C [Docetaxel] + O=C(CCCCCCC(=O)Nc1ccccc1)NO [Vorinostat] (partner 1 µM)
relative viability ([1]; first compound 0.0002 µM): 1.13 | relative viability ([1]; first compound 0.000632 µM): 0.884 | relative viability ([1]; first compound 0.002 µM): 0.44 | relative viability ([1]; first compound 0.006325 µM): 0.435 | relative viability ([1]; first compound 0.02 µM): 0.338 | relative viability ([2]; first compound 0.0002 µM): 0.492 | relative viability ([2]; first compound 0.000632 µM): 0.248 | relative viability ([2]; first compound 0.002 µM): 0.151 | relative viability ([2]; first compound 0.006325 µM): 0.154 | relative viability ([2]; first compound 0.02 µM): 0.0838 | relative viability ([3]; first compound 0.0002 µM): 0.532 | relative viability ([3]; first compound 0.000632 µM): 0.162 | relative viability ([3]; first compound 0.002 µM): 0.0568 | relative viability ([3]; first compound 0.006325 µM): 0.0865 | relative viability ([3]; first compound 0.02 µM): 0.0652 | relative viability ([4]; first compound 0.0002 µM): 0.5 | relative viability ([4]; first compound 0.000632 µM): 0.219 | relative viability ([4]; first compound 0.002 µM): 0.148 | relative viability ([4]; first compound 0.006325 µM): 0.215 | relative viability ([4]; first compound 0.02 µM): 0.0839 | relative viability ([5]; first compound 0.0002 µM): 0.856 | relative viability ([5]; first compound 0.000632 µM): 0.574 | relative viability ([5]; first compound 0.006325 µM): 0.227 | relative viability ([5]; first compound 0.02 µM): 0.131 | relative viability ([6]; first compound 0.0002 µM): 0.994 | relative viability ([6]; first compound 0.000632 µM): 1.14 | relative viability ([6]; first compound 0.002 µM): 0.861 | relative viability ([6]; first compound 0.006325 µM): 0.515 | relative viability ([6]; first compound 0.02 µM): 0.493 | relative viability ([7]; first compound 0.0002 µM): 0.522 | relative viability ([7]; first compound 0.000632 µM): 0.346 | relative viability ([8]; first compound 0.0002 µM): 0.472 | relative viability ([8]; first compound 0.000632 µM): 0.275 | relative viability ([8]; first compound 0.002 µM): 0.209 | relative viability ([8]; first compound 0.006325 µM): 0.227 | relative viability ([8]; first compound 0.02 µM): 0.152 | relative viability ([9]; first compound 0.0002 µM): 0.529 | relative viability ([9]; first compound 0.000632 µM): 0.373 | relative viability ([9]; first compound 0.002 µM): 0.278 | relative viability ([9]; first compound 0.006325 µM): 0.269 | relative viability ([9]; first compound 0.02 µM): 0.173 | relative viability ([10]; first compound 0.0002 µM): 0.631 | relative viability ([10]; first compound 0.000632 µM): 0.626 | relative viability ([10]; first compound 0.002 µM): 0.382 | relative viability ([10]; first compound 0.006325 µM): 0.244 | relative viability ([10]; first compound 0.02 µM): 0.176 | relative viability ([11]; first compound 0.0002 µM): 0.41 | relative viability ([11]; first compound 0.000632 µM): 0.582 | relative viability ([11]; first compound 0.002 µM): 0.463 | relative viability ([11]; first compound 0.006325 µM): 0.159 | relative viability [12]: 0.531
